Data on 10 molecules can be found in article PMC11171523 (2024).

For experiment [1], the system named is poly A–poly U (pApU, AU-RNA) (RNA, polymer) A/U. Description: UV melting at 260 nm. To be noted: Na+ (sodium cacodylate, I = 0.05 M); pH 7; ratio [dye]/[polynucleotide] = 0.1; error ±0.5 °C; per base.
Experiment [2] shares this test system. Description: fluorimetric titration, Scatchard fit. To be noted: Na+ (sodium cacodylate, I = 0.05 M); pH 7.0, 25 °C; dye 50 nM; n fixed at 0.2; polynucleotide as phosphate; per base.
Experiment [3] deals with poly dGdC–poly dGdC (poly(dGdC)2, GC-DNA) (DNA, polymer) GC. Description: CD titration (induced CD). To be noted: Na+ (sodium cacodylate, I = 0.05 M), pH 7.
The test system of experiment [4] is poly dAdT–poly dAdT (poly(dAdT)2, AT-DNA) (DNA, polymer) AT. Description: CD titration (induced CD). To be noted: Na+ (sodium cacodylate, I = 0.05 M), pH 7.
Setting [5] is: ratio [dye]/[polynucleotide] = 0.1 and 0.5, negative ICD at 308–324 nm.

Regarding `C#CC[N+](C)(C)c1ccc(/C=C/c2cc(/C=C/c3ccc([N+](C)(C)CC#C)cc3)c(/C=C/c3ccc([N+](C)(C)CC#C)cc3)cc2/C=C/c2ccc([N+](C)(C)CC#C)cc2)cc1`, in experiment [1], the ΔTm (commonly the shift of the melting midpoint relative to a reference) is “+10.4 °C”. In experiment [2], the “log Ks” value worked out at 8.9.
The corresponding values for `C#CC[N+](C)(C)c1ccc(/C=C/c2cc(/C=C/c3ccc([N+](C)(C)CC#C)cc3)cc(/C=C/c3ccc([N+](C)(C)CC#C)cc3)c2)cc1` are “+18.1 °C” and 8.6.
The corresponding values for `CCCC[N+](C)(CCCC)c1ccc(/C=C/c2cc(/C=C/c3ccc([N+](C)(CCCC)CCCC)cc3)c(/C=C/c3ccc([N+](C)(CCCC)CCCC)cc3)cc2/C=C/c2ccc([N+](C)(CCCC)CCCC)cc2)cc1` are 0 °C and 8.6.
As for `CCCC[N+](C)(CCCC)c1ccc(/C=C/c2cc(/C=C/c3ccc([N+](C)(CCCC)CCCC)cc3)cc(/C=C/c3ccc([N+](C)(CCCC)CCCC)cc3)c2)cc1`, the ΔTm entry in experiment [1] was “+5.1 °C”. The binding result in experiment [3] (setting [5]) and in experiment [4] (setting [5]) was “yes” in each case. Also, in experiment [2], the “log Ks” value was 8.9.
Regarding `CCCC[n+]1ccc(/C=C/c2cc(/C=C/c3cc[n+](CCCC)cc3)c(/C=C/c3cc[n+](CCCC)cc3)cc2/C=C/c2cc[n+](CCCC)cc2)cc1`, the ΔTm result in experiment [1] was “+1.7 °C”. For the same molecule, the “log Ks” value in experiment [2] amounted to 7.6.
The like results for `CCCC[n+]1ccc(/C=C/c2cc(/C=C/c3cc[n+](CCCC)cc3)cc(/C=C/c3cc[n+](CCCC)cc3)c2)cc1` were, in that order, “+1.5 °C” and 8.7.
The corresponding values for `C[N+](C)(C)c1ccc(/C=C/c2cc(/C=C/c3ccc([N+](C)(C)C)cc3)c(/C=C/c3ccc([N+](C)(C)C)cc3)cc2/C=C/c2ccc([N+](C)(C)C)cc2)cc1` are “+12.5 °C” and 8.6.
With `C[N+](C)(C)c1ccc(/C=C/c2cc(/C=C/c3ccc([N+](C)(C)C)cc3)cc(/C=C/c3ccc([N+](C)(C)C)cc3)c2)cc1`, the ΔTm result in experiment [1] is “+23.2 °C”. Also, the binding entry in experiment [3] (ratio [dye]/[polynucleotide] = 0.5, strong negative ICD at 325 nm) was “yes”; in experiment [4] (ratio [dye]/[polynucleotide] = 0.5, weaker ICD than GC-DNA), “yes”. The “log Ks” value in experiment [2] worked out at 8.9.
`C[n+]1ccc(/C=C/c2cc(/C=C/c3cc[n+](C)cc3)c(/C=C/c3cc[n+](C)cc3)cc2/C=C/c2cc[n+](C)cc2)cc1`: the thermal shift (ΔTm) result in experiment [1] is “+6.4 °C”. For the same molecule, the “log Ks” value in experiment [2] is 8.2.
The like results for `C[n+]1ccc(/C=C/c2cc(/C=C/c3cc[n+](C)cc3)cc(/C=C/c3cc[n+](C)cc3)c2)cc1` were, in that order, “+8.5 °C” and 8.7.
